Molecules are shown by their SMILES.

The results in this text go back to US9663473B2 (Actelion Pharmaceuticals Ltd, priority 2013, dated 2017).

The target of this assay is T1, recombinant human ALX receptor (Homo sapiens, UniProt P25090).
T1 construct: expressed in transfected cells; host or cells: HEK293 (HEK293-hALXR-Gα16)
T1 sequence (P25090 1-351): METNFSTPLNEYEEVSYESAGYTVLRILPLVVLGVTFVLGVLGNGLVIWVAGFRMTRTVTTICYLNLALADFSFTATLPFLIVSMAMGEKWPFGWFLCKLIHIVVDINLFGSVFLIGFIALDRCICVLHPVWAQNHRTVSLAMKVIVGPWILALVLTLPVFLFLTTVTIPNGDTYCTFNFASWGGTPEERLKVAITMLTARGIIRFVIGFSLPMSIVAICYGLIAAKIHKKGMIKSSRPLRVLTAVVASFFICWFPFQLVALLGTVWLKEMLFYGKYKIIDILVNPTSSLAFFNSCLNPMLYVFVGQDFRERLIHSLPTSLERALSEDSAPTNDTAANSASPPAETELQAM
Kind of assay: Intracellular calcium measurements (FLIPR), ALX receptor agonistic activity. The conditions noted are these: HEK293-hALXR-Gα16 cells, Fluo-4 calcium signal, normalized to WKYMVm 10 nM. The format is cell-based. In outline:
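HEK293 cells co-expressing human ALX receptor and Gα16 were loaded with 1 μM Fluo-4 AM for 60 min at 37° C., then exposed to serially diluted compounds on FLIPR Tetra. Peak fluorescence above baseline (ex 488/em 540 nm) was normalized to 10 nM WKYMVm as high control.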

For the compound `COc1ccc(CC(NC(=O)N[C@H]2CC[C@H](O)CC2)c2nc3ccc(F)cc3[nH]2)cc1F` (single isomer, unassigned; ent-1) [Example 318, 1-(1-(6-Fluoro-1H-benzo[d]imidazol-2-yl)-2-(3-fluoro-4-methoxyphenyl)ethyl)-3-(trans-4-hydroxycyclohexyl)urea (ent-1)], the EC50 worked out at 1.2 nM.

Consider `COc1ccc(CC(NC(=O)NC23CCC(O)(CC2)CC3)c2nc3ccc(F)cc3[nH]2)cc1F` (single isomer, unassigned; ent-1) [Example 319, 1-(1-(6-Fluoro-1H-benzo[d]imidazol-2-yl)-2-(3-fluoro-4-methoxyphenyl)ethyl)-3-(4-hydroxybicyclo[2.2.2]octan-1-yl)urea (ent-1)], for which the EC50 was found to be 1 nM.

For `COc1cc(F)c(CC(NC(=O)N[C@H]2CC[C@H](O)CC2)c2nc3ccccc3[nH]2)cc1F` (single isomer, unassigned; ent-1) [Example 356, 1-(1-(1H-Benzo[d]imidazol-2-yl)-2-(2,5-difluoro-4-methoxyphenyl)ethyl)-3-(trans-4-hydroxycyclohexyl)urea (ent-1)], the EC50 is 5.5 nM.

Turning to `COc1cc(F)c(CC(NC(=O)NC23CCC(O)(CC2)CC3)c2nc3ccccc3[nH]2)cc1F` (single isomer, unassigned; ent-1) [Example 357, 1-(1-(1H-Benzo[d]imidazol-2-yl)-2-(2,5-difluoro-4-methoxyphenyl)ethyl)-3-(4-hydroxybicyclo[2.2.2]octan-1-yl)urea (ent-1)], the half-maximal effective concentration (EC50) amounted to 1 nM.

In the case of `O=C(NC(Cc1ccc(C(F)(F)F)cc1F)c1nc2cc(F)ccc2[nH]1)NC12CCC(O)(CC1)CC2` (single isomer, unassigned; ent-1) [Example 361, 1-(1-(5-Fluoro-1H-benzo[d]imidazol-2-yl)-2-(2-fluoro-4-(trifluoromethyl)phenyl)ethyl)-3-(4-hydroxybicyclo[2.2.2]octan-1-yl)urea (ent-1)], the EC50 is 3.9 nM.

For `O=C(NC(Cc1ccc(C(F)(F)F)cc1F)c1nc2ccccc2[nH]1)NC12CCC(O)(CC1)CC2` (single isomer, unassigned; ent-1) [Example 362, 1-(1-(1H-Benzo[d]imidazol-2-yl)-2-(2-fluoro-4-(trifluoromethyl)phenyl)ethyl)-3-(4-hydroxybicyclo[2.2.2]octan-1-yl)urea (ent-1)], the EC50 was found to be 27 nM.

As for `O=C(NC(Cc1ccc(C(F)(F)F)cc1F)c1nc2cc(F)ccc2[nH]1)N[C@H]1CC[C@H](O)CC1` (single isomer, unassigned; ent-1) [Example 363, 1-(1-(5-Fluoro-1H-benzo[d]imidazol-2-yl)-2-(2-fluoro-4-(trifluoromethyl)phenyl)ethyl)-3-(trans-4-hydroxycyclohexyl)urea (ent-1)], the EC50 amounted to 5.6 nM.

As to `COc1ccc(CC(NC(=O)N[C@H]2CC[C@H](O)CC2)c2nc3ccccc3[nH]2)c(F)c1F` (single isomer, unassigned; ent-1) [Example 365, 1-(1-(1H-Benzo[d]imidazol-2-yl)-2-(2,3-difluoro-4-methoxyphenyl)ethyl)-3-(trans-4-hydroxycyclohexyl)urea (ent-1)], the EC50 came out at 1.7 nM.

Take `COc1cc(F)c(CC(NC(=O)N[C@H]2CC[C@H](O)CC2)c2nc3cc(F)ccc3[nH]2)c(F)c1` (single isomer, unassigned; ent-1) [Example 366, 1-(2-(2,6-Difluoro-4-methoxyphenyl)-1-(5-fluoro-1H-benzo[d]imidazol-2-yl)ethyl)-3-(trans-4-hydroxycyclohexyl)urea (ent-1)]: the EC50 was 0.4 nM.

`COc1cc(F)c(CC(NC(=O)NC23CCC(O)(CC2)CC3)c2nc3ccc(F)cc3[nH]2)c(F)c1` (single isomer, unassigned; ent-1) [Example 367, 1-(2-(2,6-Difluoro-4-methoxyphenyl)-1-(6-fluoro-1H-benzo[d]imidazol-2-yl)ethyl)-3-(4-hydroxybicyclo[2.2.2]octan-1-yl)urea (ent-1)]: the EC50 turned out to be 0.1 nM.

Turning to `CCc1ccc(CC(NC(=O)N[C@H]2CC[C@H](O)CC2)c2nc3cc(F)ccc3[nH]2)cc1` (single isomer, unassigned; ent-1) [Example 368, 1-(2-(4-Ethylphenyl)-1-(5-fluoro-1H-benzo[d]imidazol-2-yl)ethyl)-3-(trans-4-hydroxycyclohexyl)urea (ent-1)], the EC50 worked out at 1.8 nM.

As for `COc1ccc(CC(NC(=O)N[C@H]2CC[C@H](O)CC2)c2nc3cc(F)ccc3[nH]2)c(F)c1F` (single isomer, unassigned; ent-1) [Example 375, 1-(2-(2,3-Difluoro-4-methoxyphenyl)-1-(5-fluoro-1H-benzo[d]imidazol-2-yl)ethyl)-3-(trans-4-hydroxycyclohexyl)urea (ent-1)], the EC50 stood at 0.4 nM.

Take `CC(F)(F)c1ccc(CC(NC(=O)N[C@H]2CC[C@H](O)CC2)c2nc3ccccc3[nH]2)cc1` (single isomer, unassigned; ent-1) [Example 394, 1-(1-(1H-Benzo[d]imidazol-2-yl)-2-(4-(1,1-difluoroethyl)phenyl)ethyl)-3-(trans-4-hydroxycyclohexyl)urea (ent-1)]: the EC50 came to 4.7 nM.

Regarding `O=C(NC(Cc1ccc(C(F)(F)F)cc1F)c1nc2ccccc2[nH]1)N[C@H]1CC[C@H](O)CC1` (single isomer, unassigned; ent-1) [Example 399, 1-(1-(1H-Benzo[d]imidazol-2-yl)-2-(2-fluoro-4-(trifluoromethyl)phenyl)ethyl)-3-(trans-4-hydroxycyclohexyl)urea (ent-1)], the 50% effective concentration (EC50) was 1700 nM.

`O=C(NC(Cc1ccc(Br)c(F)c1)c1nc2ccc(F)cc2[nH]1)NC12CCC(O)(CC1)CC2` (single isomer, unassigned; ent-1) [Example 400, 1-(2-(4-bromo-3-fluorophenyl)-1-(6-fluoro-1H-benzo[d]imidazol-2-yl)ethyl)-3-(4-hydroxybicyclo[2.2.2]octan-1-yl)urea (ent-1)]: the EC50 is 2.6 nM.

With `COc1ccc(CC(NC(=O)N[C@H]2CC[C@H](O)CC2)c2nc3cc(Br)c(Br)cc3[nH]2)cc1` (single isomer, unassigned; ent-1) [Example 425, 1-(1-(5,6-dibromo-1H-benzo[d]imidazol-2-yl)-2-(4-methoxyphenyl)ethyl)-3-(trans-4-hydroxycyclohexyl)urea (ent-1)], the EC50 amounted to 119 nM.

On to `O=C(NC(Cc1ccc(Br)c(F)c1)c1nc2ccccc2[nH]1)N[C@H]1CC[C@H](O)CC1` (single isomer, unassigned; ent-2) [Example 262, 1-(1-(1H-Benzo[d]imidazol-2-yl)-2-(4-bromo-3-fluorophenyl)ethyl)-3-(trans-4-hydroxycyclohexyl)urea (ent-2)], for which the EC50 was 11 nM.

As to `COc1ccc(CC(NC(=O)N[C@H]2CC[C@H](O)CC2)c2nc3ccccc3[nH]2)c(F)c1` (single isomer, unassigned; ent-2) [Example 310, 1-(1-(1H-Benzo[d]imidazol-2-yl)-2-(2-fluoro-4-methoxyphenyl)ethyl)-3-(trans-4-hydroxycyclohexyl)urea (ent-2)], the EC50 is 3.3 nM.

On to `CC1(O)CCC(NC(=O)NC(Cc2ccc(Br)c(F)c2)c2nc3ccccc3[nH]2)CC1` (single isomer, unassigned; ent-2) [Example 317, 1-(1-(1H-Benzo[d]imidazol-2-yl)-2-(4-bromo-3-fluorophenyl)ethyl)-3-(trans-4-hydroxy-4-methylcyclohexyl)urea (ent-2)], for which the EC50 was found to be 5.7 nM.

Take `O=C(NC(Cc1ccc(C(F)(F)F)cc1F)c1nc2ccccc2[nH]1)N[C@H]1CC[C@H](O)CC1` (single isomer, unassigned; ent-2) [Example 359, 1-(1-(1H-Benzo[d]imidazol-2-yl)-2-(2-fluoro-4-(trifluoromethyl)phenyl)ethyl)-3-(trans-4-hydroxycyclohexyl)urea (ent-2)]: the EC50 worked out at 19 nM.

As for `O=C(NC(Cc1ccc(C(F)F)cc1)c1nc2ccccc2[nH]1)N[C@H]1CC[C@H](O)CC1` (single isomer, unassigned; ent-2) [Example 369, 1-(1-(1H-Benzo[d]imidazol-2-yl)-2-(4-(difluoromethyl)phenyl)ethyl)-3-(trans-4-hydroxycyclohexyl)urea (ent-2)], the EC50 turned out to be 7.2 nM.

Take `COc1ccc(CC(NC(=O)N[C@H]2CC[C@H](O)CC2)c2nc3ccc(F)cc3[nH]2)c(F)c1` (single isomer, unassigned; ent-2) [Example 370, 1-(1-(6-Fluoro-1H-benzo[d]imidazol-2-yl)-2-(2-fluoro-4-methoxyphenyl)ethyl)-3-(trans-4-hydroxycyclohexyl)urea (ent-2)]: the concentration for a half-maximal effect (EC50) was 717 nM.

Consider `COc1ccc(CC(NC(=O)N[C@H]2CC[C@H](O)CC2)c2nc3ccc(F)cc3[nH]2)cc1F` (single isomer, unassigned; ent-2) [Example 371, 1-(1-(6-Fluoro-1H-benzo[d]imidazol-2-yl)-2-(3-fluoro-4-methoxyphenyl)ethyl)-3-(trans-4-hydroxycyclohexyl)urea (ent-2)], for which the EC50 stood at 250 nM.

For `COc1ccc(CC(NC(=O)NC23CCC(O)(CC2)CC3)c2nc3ccc(F)cc3[nH]2)cc1F` (single isomer, unassigned; ent-2) [Example 372, 1-(1-(6-Fluoro-1H-benzo[d]imidazol-2-yl)-2-(3-fluoro-4-methoxyphenyl)ethyl)-3-(4-hydroxybicyclo[2.2.2]octan-1-yl)urea (ent-2)], the EC50 turned out to be 769 nM.
